From BindingDB's records for patent US20240190862 (Amgen, 2024)

Tests used:
[1] = molecular target: T1, GTPase KRas [1-169,G12C,C118A] (Homo sapiens, UniProt P01116, C118A/G12C); test: Coupled Nucleotide Exchange Assay (5min)
T1 construct: 1-169
Protocol: (§1) Purified GDP-bound KRAS protein (aa 1-169), containing either G12C or G12D, as well as C118A amino acid substitutions and an N-terminal His-tag, was pre-incubated in assay buffer (25 mM HEPES pH 7.4, 10 mM MgCl2, and 0.01% Triton X-100) with a compound dose-response titration for either 5 min. Following compound pre-incubation, purified SOS protein (aa 564-1049) and GTP (Roche 10106399001) were added to the assay wells and incubated for an additional 30 min. To determine the extent of inhibition of SOS-mediated nucleotide exchange, purified GST-tagged cRAF (aa 1-149), nickel chelate AlphaLISA acceptor beads (PerkinElmer AL108R), and AlphaScreen glutathione donor beads (PerkinElmer 6765302) were added to the assay wells and incubated for 10 minutes. The assay plates were then read on a PerkinElmer EnVision Multilabel Reader, using AlphaScreen technology, and data were analyzed using a 4-parameter logistic model to calculate IC50 values.

GTPase KRas [G12D,C118A] = GTPase KRas [G12D,C118A] (Homo sapiens, UniProt P01116, C118A/G12D); test: Coupled Nucleotide Exchange Assay (20 hours)
Protocol: as §1, with “20 hours.” for “either 5 min.”

[2] = molecular target: T1, GTPase KRas [1-169,G12C,C118A]; test: Coupled Nucleotide Exchange Assay (20 hours)
Protocol: as §1, with “20 hours.” for “either 5 min.”

T1 sequence (P01116 1-169 G12C/C118A): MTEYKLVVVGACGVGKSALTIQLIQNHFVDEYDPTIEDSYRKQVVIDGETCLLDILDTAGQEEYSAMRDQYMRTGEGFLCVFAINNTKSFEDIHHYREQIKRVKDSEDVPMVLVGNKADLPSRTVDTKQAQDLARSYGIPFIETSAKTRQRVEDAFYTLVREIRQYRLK
Sequence of GTPase KRas [G12D,C118A] (P01116 whole entry G12D/C118A, looked up): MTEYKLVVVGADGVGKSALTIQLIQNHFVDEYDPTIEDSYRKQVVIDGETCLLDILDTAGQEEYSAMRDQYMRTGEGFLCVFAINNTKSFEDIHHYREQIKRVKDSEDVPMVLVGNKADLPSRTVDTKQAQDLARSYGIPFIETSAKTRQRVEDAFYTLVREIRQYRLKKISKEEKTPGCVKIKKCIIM

Structure (SMILES)	IC50 [1]	IC50 (GTPase KRas [G12D,C118A])	IC50 [2]
Cc1ccnc(C(C)C)c1-n1c(=O)nc(N2CCN(C(=O)C=O)C[C@@H]2C)c2cc(Cl)c(-c3ccccc3F)nc21 [US20240190862, Example 4]	0.61 µM	> 250 µM	0.039 µM
Cc1ccnc(C(C)C)c1-n1c(=O)nc(N2CCN(C(=O)C=[N+]=[N-])C[C@@H]2C)c2cc(Cl)c(-c3ccccc3F)nc21 [US20240190862, Example 13]	8.59 µM	> 250 µM	0.54 µM
Cc1ccnc(C(C)C)c1-n1c(=O)nc(N2CCN(C(=O)COc3c(F)cccc3F)C[C@@H]2C)c2cc(Cl)c(-c3ccccc3F)nc21 [US20240190862, Example 8]	–	> 250 µM	24 µM
CC(=O)C(=O)N1CCN(c2nc(=O)n(-c3c(C)ccnc3C(C)C)c3nc(-c4ccccc4F)c(Cl)cc23)[C@@H](C)C1 [US20240190862, Example 3]	–	> 250 µM	31.3 µM
